Columns and labels:
platelets = test: Inhibition of platelet aggregation (turbidimetric, washed platelets); type: cell-based; settings: washed rabbit platelets, AA; for inhibitory effect on platelet aggregation induced by different inducers: inducers thrombin, collagen, PAF, read 5 minutes after the inducer
Protocol: In vitro assays can be used to evaluate the efficacy of a fused pyrazolyl compound of this invention in inhibiting platelet aggregation; which is attributable to low intracellular cGMP levels. For example, the compound is incubated in a platelet suspension containing a platelet aggregation factor, and the degree of aggregation is measured turbidimetrically with a dual-channel lumiaggregometer and converted into a percentage value by the method described in Teng et al., Biochem. Biophys Acta. 1987, 924:375-382.
EDTA was added to blood collected from the marginal ear vein of a rabbit to reach a final EDTA concentration of 6 mM. The EDTA-containing blood was then centrifuged at 90×g for 10 minutes at the room temperature. The supernatant, a platelet-rich plasma, was further centrifuged at 500×g for 10 minutes. The platelet pellets thus obtained were washed with a solution containing EDTA (2 mM) and serum albumin (3.5 mg/mL), and then centrifuged again at 500×g for 10 minutes. The pellets were then washed with an EDTA-free Tyrode's solution of the following composition (mM): NaCl (136.8), KCl (2.8), NaHCO3 (11.9), MgCl2 (1.1), NaH2PO4 (0.33), CaCl2 (1.0), and glucose (11.2). After centrifugation under the same conditions, the platelet pellets were suspended in the EDTA-free Tyrode's solution described above. The platelet number was counted by a Coulter Counter (Model ZM) and adjusted to 4.5×10^8 platelets/mL.
A compound to be tested was added to 4 platelet suspensions, which were then incubated at 37° C. for 3 minutes under a stirring condition (900 rpm). One minute after the stirring, four aggregation inducers, i.e., thrombin, collagen, arachidonic acid (AA), and platelet aggregation factor (PAF), were respectively added into the 4 suspensions, causing the platelets to aggregate. Platelet aggregation in each suspension was measured with a dual-channel lumiaggregometer (Model 1020, Payton, Canada) by the turbidimetric method described in Born et al., J. Physiol. 1963, 168:178-195. The percentage values of the platelet aggregation, determined 5 minutes after the addition of each aggregation inducer, were calculated by the method described in Teng et al., Biochem. Biophys Acta. 1987, 924:375-382.

sGC = test: Activation of sGC (conversion of [α-32P]GTP to cGMP by platelet lysate supernatant); type: biochemical; settings: 100 μM compound; washed rabbit platelet supernatant; 30° C., 10 minutes
Protocol: The efficacy of a compound in activating sGC can be evaluated in vitro by the following assay. Washed platelets are suspended in a buffer and disrupted by sonication. The lysate is then centrifuged to obtain a supernatant which is used as the source of sGC. An aliquot of the supernatant and the compound to be tested are added into a buffer containing GTP, a substrate for sGC. The activity of sGC can be determined by the method described in Gerzer et al., J. Pharmacol. Exp. Ther. 1983, 226:180.
Washed rabbit platelets were prepared by the method described in Teng et al., Thromb. Haemost. 1988, 59:304. They were then suspended in 50 mM pH 7.4 Tris-HCl buffer and subsequently disrupted by sonication. The lysate thus obtained was centrifuged at 39,000×g at 4° C. for 20 minutes, and the supernatant was used as the source of sGC. Two 50 μL aliquots of the supernatant were respectively added to two 150 μL pH 7.4 Tris-HCl (50 mM) buffer solutions, each containing GTP (0.2 mM, containing 1×10^6 cpm [α-^32P]GTP), MgCl2 (5 mM), cGMP (2.5 mM), creatine phosphate (15 mM), and creatine phosphokinase (30 μg). One of the two solutions also contained 100 μM compound 3. After incubation at 30° C. for 10 minutes, conversion of GTP to cGMP by sGC was terminated with HCl (200 μL, 0.5 N). […] Radioactivity ([^32P]cGTP) was measured in a liquid scintillation counter to determine the amount of […].

PDEs = test: Inhibition of PDE (conversion of [3H]cGMP by platelet lysate supernatant); type: biochemical; settings: 10 μM compound; washed human platelet supernatant; 10 μM cGMP; 37° C., 30 minutes
Protocol: The efficacy of a compound in inhibiting PDEs can be evaluated in vitro by the following assay. Washed platelets are suspended in a Tris-HCl buffer and disrupted by sonication. The lysate is centrifuged to obtain a supernatant which contains PDEs. An aliquot of the supernatant is taken to prepare a PDE-containing solution. The compound to be tested and cGMP (a substrate for PDE) are added to the solution. Ophiophagus hannah snake venom is subsequently added to remove the phosphate in 5′-GMP (converted from cGMP by PDEs) to form uncharged guanosine. An ion-exchange resin is used to remove the remaining cGMP. The cGMP-free solution is then centrifuged, and an aliquot of the supernatant is taken for quantification of the uncharged guanosine in a liquid scintillation counter. Activity of PDEs is evaluated based on the amount of the uncharged guanosine.
Washed human platelets were prepared by the method described in Teng et al., Biochem. Biophys. Acta. 1989, 990:315-320. They were then suspended in 50 mM pH 7.4 Tris-HCl buffer (containing 5 mM MgCl2) and subsequently disrupted by sonication at 4° C. […] Each cGMP-free solution thus obtained was then centrifuged, and an aliquot (0.5 mL) of the supernatant was taken for quantification of uncharged guanosine in a liquid scintillation counter.

SMILES: COC(=O)c1ccc(-c2nn(Cc3ccccc3)c3cc4c(cc23)OCO4)o1 [Compound 1, 1-benzyl-3-(5′-methoxycarbonyl-2′-furyl)-5,6-methylenedioxoindazole]
- inhibitory effect on platelet aggregation induced by different inducers (platelets): showed inhibitory effect on platelet aggregation

SMILES: O=C(O)c1ccc(-c2nn(Cc3ccccc3)c3cc4c(cc23)OCO4)o1 [Compound 2, 1-benzyl-3-(5′-hydroxycarbonyl-2′-furyl)-5,6-methylenedioxoindazole]
- inhibitory effect on platelet aggregation induced by different inducers (platelets): showed inhibitory effect on platelet aggregation

SMILES: OCc1ccc(-c2nn(Cc3ccccc3)c3cc4c(cc23)OCO4)o1 [Compound 3, 1-benzyl-3-(5′-hydroxymethyl-2′-furyl)-5,6-methylenedioxoindazole]
- activation of sGC (sGC): effective activator of sGC
- inhibition of PDEs (PDEs): potent inhibitor of PDEs
- relative effectiveness in inhibiting platelet aggregation among compounds 1-4 (platelets; aggregation induced by thrombin, collagen, and PAF): the most effective
- inhibitory effect on platelet aggregation induced by different inducers (platelets): showed inhibitory effect on platelet aggregation

SMILES: COCc1ccc(-c2nn(Cc3ccccc3)c3cc4c(cc23)OCO4)o1 [Compound 4, 1-benzyl-3-(5′-methoxymethyl-2′-furyl)-5,6-methylenedioxoindazole]
- inhibitory effect on platelet aggregation induced by different inducers (platelets): showed inhibitory effect on platelet aggregation

Reference: patent US20030004355A1, “Fused pyrazolyl compounds” (priority 2001, published 2003)
